Results reported in BindingDB's records for doi:10.1038/nchembio.2007.34 (GlaxoSmithKline, 2007).

Target: T1, Kinesin-like protein KIF11 (Homo sapiens, UniProt P52732)
T1 sequence (P52732 whole entry): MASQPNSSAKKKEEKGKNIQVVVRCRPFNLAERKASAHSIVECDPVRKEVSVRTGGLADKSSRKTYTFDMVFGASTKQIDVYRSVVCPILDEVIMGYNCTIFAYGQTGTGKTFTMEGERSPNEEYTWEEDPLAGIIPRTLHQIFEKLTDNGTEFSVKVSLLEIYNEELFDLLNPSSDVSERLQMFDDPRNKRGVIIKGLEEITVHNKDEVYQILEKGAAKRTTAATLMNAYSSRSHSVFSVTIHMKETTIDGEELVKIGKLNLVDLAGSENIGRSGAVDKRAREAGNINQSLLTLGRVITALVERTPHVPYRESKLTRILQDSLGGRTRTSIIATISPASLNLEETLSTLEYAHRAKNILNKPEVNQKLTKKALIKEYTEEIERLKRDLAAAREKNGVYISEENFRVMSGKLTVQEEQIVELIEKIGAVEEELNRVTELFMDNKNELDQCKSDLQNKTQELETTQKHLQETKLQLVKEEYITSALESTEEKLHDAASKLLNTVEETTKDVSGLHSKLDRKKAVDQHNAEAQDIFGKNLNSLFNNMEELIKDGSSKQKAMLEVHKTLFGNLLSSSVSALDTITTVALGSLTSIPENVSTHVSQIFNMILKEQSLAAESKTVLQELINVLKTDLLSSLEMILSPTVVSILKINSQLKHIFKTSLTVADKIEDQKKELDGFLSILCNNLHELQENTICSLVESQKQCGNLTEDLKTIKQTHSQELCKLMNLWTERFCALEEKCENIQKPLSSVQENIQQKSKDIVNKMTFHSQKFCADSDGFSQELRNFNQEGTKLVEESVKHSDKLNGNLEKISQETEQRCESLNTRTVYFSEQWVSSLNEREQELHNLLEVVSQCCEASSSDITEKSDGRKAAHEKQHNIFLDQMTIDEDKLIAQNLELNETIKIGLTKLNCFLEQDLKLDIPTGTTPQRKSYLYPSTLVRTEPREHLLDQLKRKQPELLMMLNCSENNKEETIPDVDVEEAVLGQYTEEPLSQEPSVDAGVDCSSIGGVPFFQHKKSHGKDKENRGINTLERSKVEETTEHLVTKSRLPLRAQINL
Assay: Wild-type HCT116
Details: pH 6.8
Description: Cell proliferation assay for wild-type cells

Ki: 1.7 nM
Structure (SMILES): O=C1CCc2cc(-c3ccc(C(F)(F)F)cc3)ccc2N1 [6-[4-(Trifluoromethyl)phenyl]-3,4-dihydro-2(1H)-quinolinone]
